Experimental findings from article PMC6821926, “Diaminoquinazoline MMV675968 from Pathogen Box inhibits Acinetobacter baumannii growth through targeting of dihydrofolate reductase” (Scientific Reports, 2019) are described below.

Each structure is given as a SMILES string.

Holding throughout (assay type): biochemical
Assay [1] deals with T1, A. baumannii dihydrofolate reductase (AbDHFR) (Acinetobacter baumannii, UniProt A0A098SJI9).
T1 construct: gene folA; AbDHFR expressed from pET15b in E. coli BL21(DE3)
T1 sequence (A0A098SJI9 entry or part of it): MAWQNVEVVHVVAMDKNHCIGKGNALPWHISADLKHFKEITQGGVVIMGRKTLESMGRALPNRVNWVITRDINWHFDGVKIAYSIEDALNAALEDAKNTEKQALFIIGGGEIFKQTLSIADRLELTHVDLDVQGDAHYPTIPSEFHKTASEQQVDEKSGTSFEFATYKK
Briefly: DHFR activity assay (A340) in lysate of E. coli BL21(DE3) overexpressing AbDHFR; also E. coli surrogate growth and DHFR activity in treated A. baumannii.

The target in the next assay is T2, human DHFR (hDHFR) (Homo sapiens, UniProt P00374).
T2 construct: hDHFR (from pL0035) expressed from pET15b in E. coli BL21(DE3)
T2 sequence (P00374 1-187): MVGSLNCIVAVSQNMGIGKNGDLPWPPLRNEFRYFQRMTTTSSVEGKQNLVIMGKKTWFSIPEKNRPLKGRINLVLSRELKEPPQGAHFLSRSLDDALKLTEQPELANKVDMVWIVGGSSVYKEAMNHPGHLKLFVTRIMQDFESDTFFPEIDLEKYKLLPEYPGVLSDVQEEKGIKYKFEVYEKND
As to the kind of experiment: DHFR activity assay (A340) in lysate of E. coli BL21(DE3) overexpressing hDHFR.

Assay [2] has as its target T1, A. baumannii dihydrofolate reductase (AbDHFR). As to the kind of experiment: DHFR activity assay (A340) in lysate of E. coli BL21(DE3) overexpressing AbDHFR.

For orientation: IC50 means the concentration at which inhibition is half-maximal. A low value points to greater potency. In the case of `COc1ccc(OC)c(NCc2ccc3nc(N)nc(N)c3c2Cl)c1` [MMV675968], the IC50 came out at 8.5 nM in assay [1] and 492 nM against human DHFR (hDHFR).
On to `CCc1nc(N)nc(N)c1-c1ccc(Cl)cc1` [PYR, pyrimethamine], for which, in assay [2], the IC50 was 81.7 nM.
